Earlier results as cited in patent US11179338B1, “Powder for oral suspension containing tadalafil” (AUSON PHARMACEUTICALS INC., priority 2021, dated 2021).

- solubility in water: insoluble
Structure (SMILES): CN1CC(=O)N2[C@H](c3ccc4c(c3)OCO4)c3[nH]c4ccccc4c3C[C@@H]2C1=O [Tadalafil, pyrazino [1′,2′:1,6]pyrido[3,4-b]indole-1,4-dione, 6-(1,3-benzodioxol-5-yl) 2,3,6,7,12,12a-hexahydro-2-methyl-, (6R,12aR)-]
